The text below walks through data of US9133105B2, “Transcription factor modulators” (C & C BIOPHARMA, LLC, priority 2013, dated 2015).

Test [1] addresses MEF2D and HDAC4 protein interactions (Homo sapiens (Human), UniProt Q14814). Nature of the test: Mammalian two-hybrid assay (GAL4-MEF2D / HDAC4-VP16 luciferase reporter). Format: cell-based. The settings on record: for Relative Activity, I / Inhibition of MEF2D/HDAC4 interactions (in words) / IC50: HeLa cells; for Relative Activity, I: test compound 10 μM overnight, ratio X/Y versus DMSO control, expressed in percentile, low = strong inhibition; for Group: class by relative activity I at 10 μM; for Inhibition of MEF2D/HDAC4 interactions (in words): two-hybrid assay; for IC50: concentration when X/Y equals 50. An excerpt:
Detection of MEF2D and HDAC4 interactions. In this mammalian two-hybrid assay, HDAC4 and MEF2D proteins were used as representative members of their respective protein families because the protein-protein interactions involved in the recruitment of class IIa HDACs by MEF2 were highly conserved. Two separate DNA constructs were made with MEF2D fused with the GAL4 DNA binding domain (GAL4-MEF2D) and with the MEF2-binding motif of HDAC4 (AA 155-220) fused with the viral transactivator VP-16 (HDAC4-VP16) (FIG. 1). Human epithelial carcinoma cells (HeLa) were co-transfected with the two DNA constructs (GAL4-MEF2D and HDAC4-VP16) and a reporter plasmid (Gal4Luc). […] MEF2D and HDAC4 protein interactions were detected as a result of the GAL4-MEF2D and HDAC4-VP16 protein complex binding a DNA promoter on the reporter plasmid (Gal4Luc) and driving cellular expression of a luciferase gene (FIG. 1). The measured luciferase protein signal was proportional to the amount of MEF2D and HDAC4 protein interactions occurring with the cell.
The relatively stronger signal from the GAL4VP16 positive control construct was probably due to the fact that the activation domain of VP16 was covalently linked to GAL4, whereas in the mammalian two-hybrid assay it was recruited by protein-protein interactions between HDAC4 and MEF2 (FIG. 2). This assay permitted the detection of the interactions between HDAC4 and MEF2D with minimal interference from endogenous factors. The HDAC4 fragment lacked the catalytic domain so that the deacetylase activity was excluded from the assay.
Detection of inhibition of MEF2D and HDAC4 interactions. Next, the assay was used to test whether the compounds could disrupt the interactions between MEF2D and HDAC4. After co-expressing the GAL4-MEF2D and HDAC4-VP16 DNA constructs and reporter plasmid, the HeLa cells were treated with a test compound (10 μM) overnight. Cells transfected with the positive control GAL4VP16 fusion construct and reporter plasmid were also treated with the test compound (10 μM) overnight. As another control, DMSO was added (but kept below 0.2% V/V) to cells transfected with the positive GAL4VP16 fusion construct or the GAL4-MEF2D and HDAC4-VP16 DNA constructs. A luciferase assay was performed as described above according to the manufacturer's protocol (Promega). The luciferase response was normalized against the Renilla Luciferase as an internal control.
The relative activity and IC50 calculations. […] The relative activity, I, was the ratio of former to later, i.e. X/Y, expressed in percentile. […] The IC50 was the concentration of the compounds when X/Y equals 50.
A general note: In a reporter assay the amount or activity of a reporter protein is the signal.

In the next test the test system is Nalm-6 leukemia cells. Nature of the test: Inhibition of Nalm-6 leukemia cell growth (CellTiter-Glo). Format: cell-based. The settings on record: 72 hours treatment; for IC50: Homo sapiens, NALM-6. In general terms: Cellular ATP, detected with luciferase, serves as a proxy for viable cell number.

Sequence of MEF2D and HDAC4 protein interactions (Q14814 whole entry, species assumed, the tested form may be a part): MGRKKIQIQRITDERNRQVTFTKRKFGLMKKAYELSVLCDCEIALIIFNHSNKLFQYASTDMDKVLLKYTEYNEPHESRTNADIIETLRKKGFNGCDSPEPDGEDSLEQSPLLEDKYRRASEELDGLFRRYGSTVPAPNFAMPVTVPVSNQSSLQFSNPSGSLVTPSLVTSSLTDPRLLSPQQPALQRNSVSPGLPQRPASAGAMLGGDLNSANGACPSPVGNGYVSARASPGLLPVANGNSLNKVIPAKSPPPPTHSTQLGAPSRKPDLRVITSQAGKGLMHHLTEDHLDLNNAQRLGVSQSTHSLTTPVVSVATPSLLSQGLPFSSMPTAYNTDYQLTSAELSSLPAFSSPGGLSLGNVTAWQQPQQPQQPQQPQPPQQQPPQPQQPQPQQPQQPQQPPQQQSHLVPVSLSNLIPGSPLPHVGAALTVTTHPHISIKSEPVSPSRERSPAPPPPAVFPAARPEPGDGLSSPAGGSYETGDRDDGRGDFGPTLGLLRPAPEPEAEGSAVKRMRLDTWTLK
Procedure for Nalm-6 leukemia cells: Treatment of cells. Nalm-6 leukemia cells were grown to the logarithmic growth phase and seeded into 24-well plates. Plated cells were incubated at 37° C. in a 5% CO2 humidified incubator for 24 hours and treated with various concentrations of compounds. Treated cells were further incubated for 72 hours and then were examined for cell proliferation. Cell proliferation was determined using the CellTiter-Glo Luminescence Cell Viability assay (Promega Corporation, Madison, Wis.) according to the manufacturer's protocol. The calculated inhibition rate was determined with the following formula: Inhibition rate (%)=(1−Luminescence of experimental group/Luminescence of control group)×100. The 1050 was the calculated concentration of a compound needed to inhibit half of the maximum cell growth (equivalent to cell growth in control group) based on the corresponding dose-response curve under the described experimental conditions.

By IC50 is commonly meant the concentration that gives 50% inhibition. In the case of `Nc1ccccc1NC(=O)CCCCCC(=O)NCc1cccnc1` [CC1, N^1-(2-aminophenyl)-N^7-(pyridin-3-ylmethyl)heptanediamide], in test [1], the “Relative Activity, I” value is 79.2; the Group result is “C (C (50 < I < 100 included))”; the “Inhibition of MEF2D/HDAC4 interactions (in words)” value is recorded as “mild inhibitory effect”. Further, in the test on Nalm-6 leukemia cells, the “Nalm-6 leukemia cell growth inhibition (in words)” value is listed as “mild inhibitory effect” and the IC50 is greater than 10 µM.
For `Nc1ccccc1NC(=O)CCCCCC(=O)Nc1cccc(O)c1` [CC2, N^1-(2-aminophenyl)-N^7-(3-hydroxyphenyl)heptanediamide], in test [1], the “Relative Activity, I” value turned out to be 4.7; half-maximal inhibition (IC50) required 0.09 µM; the Group entry is “A (A (I < 22 included))”. Half-maximal inhibition in the test with Nalm-6 leukemia cells (IC50) was put at 1.46 µM.
The matching figures for `Nc1ccccc1NC(=O)CCCCCC(=O)Nc1ccc(O)cc1` [CC3, N^1-(2-aminophenyl)-N^7-(4-hydroxyphenyl)heptanediamide]: 5.4, 0.1 µM, “A (A (I < 22 included))” and 2.61 µM.
For `Nc1ccncc1NC(=O)CCCCCC(=O)Nc1cccc(Br)c1` [CC4, N^1-(4-aminopyridin-3-yl)-N^7-(3-bromophenyl)heptanediamide], in test [1], the “Relative Activity, I” value was found to be 79.5; the Group result is listed as “C (C (50 < I < 100 included))”; the “Inhibition of MEF2D/HDAC4 interactions (in words)” value is listed as “mild inhibitory effect”. In the test with Nalm-6 leukemia cells, the “Nalm-6 leukemia cell growth inhibition (in words)” value was “mild inhibitory effect” and the IC50 is greater than 10 µM.
For `Nc1ccccc1NC(=O)CCCCCNC(=O)c1ccc(Br)cc1` [CC5, N-(6-((2-aminophenyl)amino)-6-oxohexyl)-4-bromobenzamide], in test [1], the “Relative Activity, I” value was found to be 3.6; the IC50 was 0.07 µM; the Group result was “A (A (I < 22 included))”. In addition, in the test on Nalm-6 leukemia cells, the IC50 was 1.38 µM.
With `Nc1ccccc1NC(=O)CCCCCC(=O)Nc1ccccc1Br` [CC6, N^1-(2-aminophenyl)-N^7-(2-bromophenyl)heptanediamide], in test [1], the “Relative Activity, I” value amounted to 62.6; the Group result is “C (C (50 < I < 100 included))”; the “Inhibition of MEF2D/HDAC4 interactions (in words)” value was “weaker inhibition”. In the test with Nalm-6 leukemia cells, the “Nalm-6 leukemia cell growth inhibition (in words)” value is “strong growth inhibition” and the IC50 is 2.05 µM.
For the compound `Nc1ccccc1NC(=O)CCCCCC(=O)Nc1cncc(Br)c1` [CC7, N^1-(2-aminophenyl)-N^7-(5-bromopyridin-3-yl)heptanediamide], in test [1], the “Relative Activity, I” value was 5.7; the IC50 came out at 0.11 µM; the Group result is reported as “A (A (I < 22 included))”. For the same compound, the IC50 in the test with Nalm-6 leukemia cells came out at 1.36 µM.
